Laboratory results reported in ChEMBL document CHEMBL4038335, “Neuroactive Steroids. 2. 3α-Hydroxy-3β-methyl-21-(4-cyano-1H-pyrazol-1'-yl)-19-nor-5β-pregnan-20-one (SAGE-217): A Clinical Next Generation Neuroactive Steroid Positive Allosteric Modulator of the (γ-Aminobutyric Acid)A Receptor” (J Med Chem, 2017).
Values after ≈ are worked out from the molar mass of the structure shown.

What was measured:
[1] = target: Potassium/sodium hyperpolarization-activated cyclic nucleotide-gated channel 2 (Homo sapiens, UniProt Q9UL51); assay: Inhibition of HCN2 (unknown origin) by patch clamp assay
[2] = tested on: Canis familiaris; assay: Clearance in Beagle dog at 5 mg/kg, iv or 20 mg/kg, po measured up to 8 hrs post dose by LC/MS-MS analysis relative to hepatic blood flow; format: ADME, organism-based, Canis lupus familiaris; conditions: in vivo
[3] = Lipophilicity, logD of compound at 20 uM at pH 7.4 by HPLC/MS-MS analysis; format: physicochemical; conditions: buffer
[4] = Clearance in dog hepatic microsomes at 10 uM preincubated for 5 mins followed by NADPH addition measured over 60 mins by HPLC-MS/MS analysis; format: ADME, Canis lupus familiaris, Liver, Microsome; conditions: 1 h
[5] = target: GABA-A receptor alpha-4/beta-3/delta (Homo sapiens, UniProt P28472+P48169+); assay: (§1) Positive allosteric modulation of GABAA receptor alpha4beta3delta (unknown origin) expressed in CHO cells assessed as potentiation of GABA-mediated increase in channel current under holding potential at -80 mV at 0.01 to 10 uM preincubated for 30 secs followed by GABA stimulation for 2 secs by manual patch clamp assay relative to GABA; format: cell-based; conditions: 2 s
[6] = Ratio of drug level in Sprague-Dawley rat brain to plasma at 5 mg/kg, iv measured at 30 mins post dose by LC/MS-MS analysis; format: ADME, organism-based; conditions: read-out: BPR
[7] = Clearance in Beagle dog at 5 mg/kg, iv or 20 mg/kg, po measured up to 8 hrs post dose by LC/MS-MS analysis; format: ADME, organism-based, Canis lupus familiaris; conditions: in vivo
[8] = Protein binding in rat plasma at 10 uM after 6 hrs by equilibrium dialysis; format: ADME, cell-free; conditions: read-out: PPB (converted)
[9] = Protein binding in human plasma at 10 uM after 6 hrs by equilibrium dialysis; format: ADME, cell-free; conditions: read-out: PPB (converted)
[10] = Clearance in rat hepatic microsomes at 10 uM preincubated for 5 mins followed by NADPH addition measured over 60 mins by HPLC-MS/MS analysis; format: ADME, Microsome; conditions: liver microsomes
[11] = Displacement of [35S]TBPS from GABA-A receptor in Sprague-Dawley rat cerebral cortex cell membranes after 90 mins in presence of GABA by liquid scintillation counting
[12] = Oral bioavailability in Beagle dog at 20 mg/kg measured up to 8 hrs post dose by LC/MS-MS analysis; format: ADME, organism-based, Canis lupus familiaris; conditions: in vivo
[13] = target: Cytochrome P450 3A4 (Homo sapiens, UniProt P08684); assay: Inhibition of CYP3A4 (unknown origin); format: ADME
[14] = tested on: Mus musculus; assay: Anticonvulsant activity in PTZ-induced seizure mouse model at 0.3 to 3 mg/kg, ip; format: functional
[15] = target: Cytochrome P450 2C19 (Homo sapiens, UniProt P33261); assay: Inhibition of CYP2C19 (unknown origin); format: ADME
[16] = Clearance in mouse hepatic microsomes at 10 uM preincubated for 5 mins followed by NADPH addition measured over 60 mins by HPLC-MS/MS analysis; format: ADME, Microsome; conditions: liver microsomes
[17] = target: Transient receptor potential cation channel subfamily V member 1 (Homo sapiens) (UniProt Q8NER1); assay: Antagonist activity at human TRPV1 expressed in CHOK1 cells assessed as inhibition of capsaicin-induced Ca2+ flux at 10 uM by spectrophotometric analysis; format: cell-based
[18] = Clearance in CD1 mouse at 5 mg/kg, iv or 20 mg/kg, po measured up to 8 hrs post dose by LC/MS-MS analysis; format: ADME, organism-based; conditions: in vivo
[19] = target: Glycine receptor subunit alpha-1 (Homo sapiens) (UniProt P23415); assay: Binding affinity to human glycine alpha 1 receptor expressed in HEK293 cells at 10 uM by IonFlux based assay; format: cell-based
[20] = target: Cytochrome P450 1A2 (Homo sapiens, UniProt P05177); assay: Inhibition of CYP1A2 (unknown origin); format: ADME
[21] = Thermodynamic aqueous solubility of compound at 10 uM sonicated for 1 min followed by incubation for 1 hr by HPLC-MS/MS; format: physicochemical; conditions: buffer; read-out: Therm_solubility
[22] = Clearance in human hepatocytes at 10 uM preincubated for 5 mins […] measured over 60 mins by HPLC-MS/MS analysis; format: ADME, cell-based, Hepatocyte; conditions: 1 h
[23] = Clearance in dog hepatocytes at 10 uM preincubated for 5 mins […] measured over 60 mins by HPLC-MS/MS analysis; format: ADME, cell-based, Canis lupus familiaris, Hepatocyte; conditions: 1 h
[24] = target: Voltage-gated inwardly rectifying potassium channel KCNH2 (Homo sapiens, UniProt Q12809); assay: Inhibition of human ERG by patch clamp assay
[25] = target: Voltage-gated potassium channel, IKs; KCNQ1(Kv7.1)/KCNE1(MinK) (Homo sapiens, UniProt P15382+P51787); assay: Inhibition of KCNQ1/minK (unknown origin) by patch clamp assay
[26] = target: GABA-A receptor; alpha-1/beta-2/gamma-2 (Homo sapiens) (UniProt P14867+P47870+P18507); assay: as §1, with “alpha1beta2gamma2” for “alpha4beta3delta”, “mouse LTK” for “CHO”, “automated” for “manual”; format: cell-based
[27] = target: Cytochrome P450 2D6 (Homo sapiens, UniProt P10635); assay: Inhibition of CYP2D6 (unknown origin); format: ADME
[28] = Clearance in human hepatic microsomes at 10 uM preincubated for 5 mins followed by NADPH addition measured over 60 mins by HPLC-MS/MS analysis; format: ADME, Microsome; conditions: liver microsomes
[29] = target: Sigma non-opioid intracellular receptor 1 (Homo sapiens) (UniProt Q99720); assay: Displacement of [3H](+)pentazocine from human sigma1-receptor at 10 uM after 120 mins by scintillation counting
[30] = target: Sodium channel protein type 5 subunit alpha (Homo sapiens, UniProt Q14524); assay: Inhibition of Nav1.5 (unknown origin) by patch clamp assay
[31] = Protein binding in mouse plasma at 10 uM after 6 hrs by equilibrium dialysis; format: ADME, cell-free; conditions: read-out: PPB
[32] = Clearance in rat hepatocytes at 10 uM preincubated for 5 mins […] measured over 60 mins by HPLC-MS/MS analysis; format: ADME, cell-based, Hepatocyte; conditions: 1 h
[33] = target: Voltage-dependent L-type calcium channel subunit alpha-1C (Homo sapiens, UniProt Q13936); assay: Inhibition of Cav1.2 (unknown origin) by patch clamp assay
[34] = target: Gamma-aminobutyric acid receptor subunit alpha-4/beta3/delta (Homo sapiens, UniProt O14764+P28472+P48169); assay: as §1, with “mV” for “mV at 0.01 to 10 uM”, “assay” for “assay relative to GABA”; format: cell-based
[35] = target: Kv channel-interacting protein 2/Potassium voltage-gated channel subfamily D member 3 (Homo sapiens, UniProt Q9NS61+Q9UK17); assay: Inhibition of Kv4.3(unknown origin)/KChIP2.2 (unknown origin) by patch clamp assay
[36] = Clearance in Sprague-Dawley rat at 5 mg/kg, iv or 20 mg/kg, po measured up to 8 hrs post dose by LC/MS-MS analysis; format: ADME, organism-based; conditions: in vivo
[37] = Oral bioavailability in Sprague-Dawley rat at 20 mg/kg measured up to 8 hrs post dose by LC/MS-MS analysis; format: ADME, organism-based; conditions: in vivo
[38] = Oral bioavailability in CD1 mouse at 20 mg/kg measured up to 8 hrs post dose by LC/MS-MS analysis; format: ADME, organism-based; conditions: in vivo
[39] = target: Inward rectifier potassium channel 2 (Homo sapiens, UniProt P63252); assay: Inhibition of Kir2.1 (unknown origin) by patch clamp assay
[40] = target: Cytochrome P450 2C9 (Homo sapiens, UniProt P11712); assay: Inhibition of CYP2C9 (unknown origin); format: ADME
[41] = target: Cytochrome P450 2B6 (Homo sapiens, UniProt P20813); assay: Inhibition of CYP2B6 (unknown origin); format: ADME
[42] = Protein binding in dog plasma at 10 uM after 6 hrs by equilibrium dialysis; format: ADME, cell-free, Canis lupus familiaris; conditions: read-out: PPB (converted)
[43] = target: Potassium voltage-gated channel subfamily A member 5 (Homo sapiens, UniProt P22460); assay: Inhibition of Kv1.5 (unknown origin) by patch clamp assay
[44] = Clearance in mouse hepatocytes at 10 uM preincubated for 5 mins […] measured over 60 mins by HPLC-MS/MS analysis; format: ADME, cell-based, Hepatocyte; conditions: read-out: CLH (converted)

Chain of Kv channel-interacting protein 2/Potassium voltage-gated channel subfamily D member 3 (Q9UK17 whole entry): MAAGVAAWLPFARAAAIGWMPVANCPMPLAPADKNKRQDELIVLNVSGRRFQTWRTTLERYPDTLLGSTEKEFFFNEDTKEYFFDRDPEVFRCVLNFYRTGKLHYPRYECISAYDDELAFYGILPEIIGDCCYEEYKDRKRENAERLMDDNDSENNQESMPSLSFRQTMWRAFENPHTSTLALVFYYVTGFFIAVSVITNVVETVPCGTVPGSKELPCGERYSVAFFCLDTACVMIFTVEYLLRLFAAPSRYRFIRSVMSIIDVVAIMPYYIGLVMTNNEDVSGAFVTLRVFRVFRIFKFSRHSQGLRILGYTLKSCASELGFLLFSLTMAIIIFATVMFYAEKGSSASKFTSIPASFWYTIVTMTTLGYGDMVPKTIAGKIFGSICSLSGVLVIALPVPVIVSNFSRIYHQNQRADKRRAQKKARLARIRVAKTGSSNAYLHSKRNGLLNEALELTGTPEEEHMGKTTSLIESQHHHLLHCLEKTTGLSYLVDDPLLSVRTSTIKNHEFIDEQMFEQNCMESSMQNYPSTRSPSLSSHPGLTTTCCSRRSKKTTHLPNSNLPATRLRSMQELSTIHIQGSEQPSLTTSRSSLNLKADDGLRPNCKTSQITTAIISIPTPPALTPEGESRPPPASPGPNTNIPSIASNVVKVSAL
Chain of Kv channel-interacting protein 2/Potassium voltage-gated channel subfamily D member 3 (Q9NS61 whole entry): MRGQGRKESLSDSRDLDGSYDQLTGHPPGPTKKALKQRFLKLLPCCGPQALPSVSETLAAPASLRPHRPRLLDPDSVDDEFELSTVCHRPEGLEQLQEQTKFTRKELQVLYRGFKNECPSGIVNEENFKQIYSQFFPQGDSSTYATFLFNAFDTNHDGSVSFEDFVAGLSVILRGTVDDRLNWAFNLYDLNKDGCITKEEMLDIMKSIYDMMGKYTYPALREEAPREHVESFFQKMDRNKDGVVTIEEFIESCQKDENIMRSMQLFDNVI
Chain of Cytochrome P450 3A4 (P08684 whole entry): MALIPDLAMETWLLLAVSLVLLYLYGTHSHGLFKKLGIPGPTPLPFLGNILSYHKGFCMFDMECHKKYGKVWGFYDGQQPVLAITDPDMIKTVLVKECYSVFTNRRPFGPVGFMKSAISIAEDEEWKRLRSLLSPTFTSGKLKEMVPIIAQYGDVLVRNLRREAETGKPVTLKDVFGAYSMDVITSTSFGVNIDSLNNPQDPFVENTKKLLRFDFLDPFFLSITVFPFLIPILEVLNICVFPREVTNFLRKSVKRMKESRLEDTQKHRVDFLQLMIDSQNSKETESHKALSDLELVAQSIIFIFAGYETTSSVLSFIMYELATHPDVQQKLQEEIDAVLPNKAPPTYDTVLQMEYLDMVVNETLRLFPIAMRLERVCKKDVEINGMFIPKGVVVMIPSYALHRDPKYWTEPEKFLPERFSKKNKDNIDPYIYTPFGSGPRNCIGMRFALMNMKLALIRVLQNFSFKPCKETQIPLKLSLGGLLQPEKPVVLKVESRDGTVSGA
Chain of Gamma-aminobutyric acid receptor subunit alpha-4/beta3/delta (P28472 whole entry): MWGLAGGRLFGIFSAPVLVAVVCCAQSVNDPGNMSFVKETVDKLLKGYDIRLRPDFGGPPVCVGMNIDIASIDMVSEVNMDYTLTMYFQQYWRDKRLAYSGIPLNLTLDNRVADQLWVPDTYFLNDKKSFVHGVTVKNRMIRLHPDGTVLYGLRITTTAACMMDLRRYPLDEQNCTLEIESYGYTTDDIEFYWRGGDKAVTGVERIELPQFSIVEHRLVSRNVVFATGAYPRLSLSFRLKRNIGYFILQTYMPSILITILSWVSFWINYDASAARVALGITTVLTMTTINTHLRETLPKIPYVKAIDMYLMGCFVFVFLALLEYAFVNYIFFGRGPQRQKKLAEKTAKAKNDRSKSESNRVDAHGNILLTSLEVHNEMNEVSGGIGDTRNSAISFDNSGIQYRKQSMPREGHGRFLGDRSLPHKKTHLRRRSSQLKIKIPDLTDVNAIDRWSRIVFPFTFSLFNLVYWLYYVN
Chain of Gamma-aminobutyric acid receptor subunit alpha-4/beta3/delta (P48169 whole entry): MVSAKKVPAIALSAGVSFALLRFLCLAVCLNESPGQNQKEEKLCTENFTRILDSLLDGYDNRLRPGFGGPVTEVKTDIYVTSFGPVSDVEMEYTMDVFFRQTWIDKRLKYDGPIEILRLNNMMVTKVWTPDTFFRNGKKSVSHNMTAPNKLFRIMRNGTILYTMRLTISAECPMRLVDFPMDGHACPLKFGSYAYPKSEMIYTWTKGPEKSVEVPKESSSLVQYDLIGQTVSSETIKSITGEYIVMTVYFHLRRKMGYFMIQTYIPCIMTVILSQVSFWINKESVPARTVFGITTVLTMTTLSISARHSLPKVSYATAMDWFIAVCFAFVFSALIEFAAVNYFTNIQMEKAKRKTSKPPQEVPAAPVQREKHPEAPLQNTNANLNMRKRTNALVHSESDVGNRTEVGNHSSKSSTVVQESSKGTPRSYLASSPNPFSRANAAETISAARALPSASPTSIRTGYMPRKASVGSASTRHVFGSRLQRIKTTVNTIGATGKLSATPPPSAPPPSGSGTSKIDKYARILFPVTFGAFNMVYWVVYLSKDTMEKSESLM
Chain of Gamma-aminobutyric acid receptor subunit alpha-4/beta3/delta (O14764 whole entry): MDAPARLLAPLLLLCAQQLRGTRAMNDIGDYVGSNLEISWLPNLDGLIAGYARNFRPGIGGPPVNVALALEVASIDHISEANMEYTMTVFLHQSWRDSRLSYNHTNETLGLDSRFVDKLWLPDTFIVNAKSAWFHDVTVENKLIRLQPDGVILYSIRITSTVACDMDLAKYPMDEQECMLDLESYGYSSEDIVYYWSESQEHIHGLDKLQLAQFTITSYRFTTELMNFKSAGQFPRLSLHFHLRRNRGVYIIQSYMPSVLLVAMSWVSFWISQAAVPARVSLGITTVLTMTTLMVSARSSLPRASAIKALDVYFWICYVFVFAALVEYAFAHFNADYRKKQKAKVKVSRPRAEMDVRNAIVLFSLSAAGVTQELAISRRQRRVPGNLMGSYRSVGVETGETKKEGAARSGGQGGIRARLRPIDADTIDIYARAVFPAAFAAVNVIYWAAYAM
Chain of Sigma non-opioid intracellular receptor 1 (Homo sapiens) (Q99720 whole entry): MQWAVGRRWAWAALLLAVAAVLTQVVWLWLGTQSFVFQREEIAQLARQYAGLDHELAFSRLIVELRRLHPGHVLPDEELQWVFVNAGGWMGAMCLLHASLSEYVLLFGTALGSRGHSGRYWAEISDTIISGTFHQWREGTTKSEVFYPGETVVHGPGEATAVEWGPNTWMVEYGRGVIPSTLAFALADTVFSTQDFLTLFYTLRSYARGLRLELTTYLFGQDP
Chain of Voltage-gated inwardly rectifying potassium channel KCNH2 (Q12809 whole entry): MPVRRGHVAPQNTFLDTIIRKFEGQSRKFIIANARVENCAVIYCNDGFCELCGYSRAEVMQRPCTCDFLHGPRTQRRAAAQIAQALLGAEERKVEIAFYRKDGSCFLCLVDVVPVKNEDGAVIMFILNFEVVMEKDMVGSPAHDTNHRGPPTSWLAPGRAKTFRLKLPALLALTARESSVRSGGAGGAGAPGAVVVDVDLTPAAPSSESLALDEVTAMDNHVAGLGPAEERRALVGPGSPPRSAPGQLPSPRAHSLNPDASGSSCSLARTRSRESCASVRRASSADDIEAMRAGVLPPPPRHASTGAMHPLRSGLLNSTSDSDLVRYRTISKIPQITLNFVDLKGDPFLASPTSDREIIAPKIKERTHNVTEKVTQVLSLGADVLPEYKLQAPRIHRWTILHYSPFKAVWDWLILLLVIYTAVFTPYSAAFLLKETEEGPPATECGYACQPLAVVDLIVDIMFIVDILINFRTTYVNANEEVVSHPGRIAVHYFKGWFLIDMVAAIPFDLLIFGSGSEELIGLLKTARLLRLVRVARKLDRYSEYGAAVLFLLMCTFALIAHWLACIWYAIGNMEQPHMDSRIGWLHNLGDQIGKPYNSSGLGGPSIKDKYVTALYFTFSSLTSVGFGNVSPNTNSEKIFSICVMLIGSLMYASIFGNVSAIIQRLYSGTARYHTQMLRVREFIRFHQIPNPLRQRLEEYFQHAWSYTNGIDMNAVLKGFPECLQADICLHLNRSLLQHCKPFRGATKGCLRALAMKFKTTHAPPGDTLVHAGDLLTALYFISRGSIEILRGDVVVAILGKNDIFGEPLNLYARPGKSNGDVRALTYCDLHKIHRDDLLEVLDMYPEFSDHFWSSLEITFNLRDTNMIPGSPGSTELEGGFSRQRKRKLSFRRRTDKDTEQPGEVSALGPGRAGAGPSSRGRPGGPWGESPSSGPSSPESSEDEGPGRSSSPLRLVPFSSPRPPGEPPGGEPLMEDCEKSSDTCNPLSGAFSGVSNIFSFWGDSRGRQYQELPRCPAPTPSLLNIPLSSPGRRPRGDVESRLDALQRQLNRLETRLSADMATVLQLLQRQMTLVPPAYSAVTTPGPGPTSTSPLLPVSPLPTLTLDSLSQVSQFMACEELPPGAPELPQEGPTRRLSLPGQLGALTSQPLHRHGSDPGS
Chain of Cytochrome P450 2B6 (P20813 whole entry): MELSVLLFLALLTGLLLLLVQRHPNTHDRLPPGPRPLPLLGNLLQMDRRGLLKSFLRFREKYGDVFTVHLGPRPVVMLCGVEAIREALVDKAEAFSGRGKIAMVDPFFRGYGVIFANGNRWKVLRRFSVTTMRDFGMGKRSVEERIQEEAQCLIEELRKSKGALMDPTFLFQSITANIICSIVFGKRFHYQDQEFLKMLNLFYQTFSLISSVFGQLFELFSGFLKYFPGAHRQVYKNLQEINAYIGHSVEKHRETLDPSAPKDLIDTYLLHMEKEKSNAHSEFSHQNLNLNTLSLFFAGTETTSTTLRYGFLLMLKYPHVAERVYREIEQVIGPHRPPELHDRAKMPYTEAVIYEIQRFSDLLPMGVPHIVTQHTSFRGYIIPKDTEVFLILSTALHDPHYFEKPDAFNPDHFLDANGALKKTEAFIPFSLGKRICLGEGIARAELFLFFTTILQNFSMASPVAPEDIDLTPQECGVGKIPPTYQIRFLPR

For `C[C@@]1(O)CC[C@H]2[C@H](CC[C@@H]3[C@@H]2CC[C@]2(C)[C@@H](C(=O)Cn4cc(C#N)cn4)CC[C@@H]32)C1` [ZURANOLONE], the IC50 [1] was over 30 µM, the CL [2] was under 10% and the logD at 20 µM [3] was 4.6. The CLH [4] was 10 mL/min/kg, the Emax [5] was 574% and the Kp at 0.5 h [6] was 4.2. The clearance [7] was 1.67 mL/min/kg, the fraction unbound at 6 h, 10 µM [8] was 0.012 and the fraction unbound at 6 h, 10 µM [9] was 0.012. For the same compound, the CLhep predicted at 10 µM [10] was 36.7 mL/min/kg, the IC50 [11] was 0.007 µM and the bioavailability [12] was 68%. It also gave an IC50 [13] of over 30 µM, an MEC [14] of 85 nM and an IC50 [15] of over 30 µM. For the same compound, the CLhep predicted at 10 µM [16] was 70 mL/min/kg, the inhibition [17] was 95% and the clearance [18] was 25 mL/min/kg. The Activity [19] was 57%, the IC50 [20] was over 30 µM and the solubility thermodynamic at 1 h, 10 µM [21] was 2 µM (≈ 0.819 µg/mL). The CLH [22] was 15 mL/min/kg, the CLH [23] was 10 mL/min/kg and the IC50 [24] was over 30 µM. The IC50 [25] was over 30 µM, the Emax [26] was 473% and the IC50 [27] was over 30 µM. For the same compound, the CLhep predicted at 10 µM [28] was 3.33 mL/min/kg, the inhibition [29] was 88% and the IC50 [30] was over 30 µM. For the same compound, the fraction unbound at 6 h, 10 µM [31] was 0.01, the CLH [32] was 17 mL/min/kg and the IC50 [33] was over 30 µM. It also gave an EC50 [34] of 0.299 µM, an IC50 [35] of over 30 µM and a clearance [36] of 23.3 mL/min/kg. The bioavailability [37] was 32%, the bioavailability [38] was 62% and the IC50 [39] was over 30 µM. The IC50 [40] was over 30 µM, the IC50 [41] was over 30 µM and the fraction unbound at 6 h, 10 µM [42] was 0.016. For the same compound, the IC50 [43] was over 30 µM and the CLint scaled at 10 µM [44] was 102 mL/min/kg.
